Measurements as given in ChEMBL document CHEMBL1156232, “Non-classical antifolates. Part 2: synthesis, biological evaluation, and molecular modeling study of some new 2,6-substituted-quinazolin-4-ones” (Bioorg Med Chem, 2010).
Converted amounts (≈) assume the structure as drawn. The source made the active and inactive calls. No cut-off for these calls is given here.

Tests used:
[1] = tested on: Staphylococcus aureus; assay: Antibacterial activity against Staphylococcus aureus at 200 ug/disk after 24 hrs by disk diffusion method; assay type: functional; conditions: for zone of inhibition at 200 µg/disc: read-out: DIZ
[2] = tested on: Bacillus subtilis; assay: Antibacterial activity against Bacillus subtilis after 24 hrs by microdilution susceptibility method; assay type: functional
[3] = tested on: Pseudomonas aeruginosa; assay: Antibacterial activity against Pseudomonas aeruginosa at 200 ug/disk after 24 hrs by disk diffusion method; assay type: functional; conditions: for zone of inhibition at 200 µg/disc: read-out: DIZ
[4] = tested on: Candida albicans; assay: Antifungal activity against Candida albicans at 200 ug/disk after 48 hrs by disk diffusion method; assay type: functional, organism-based
[5] = tested on: Bacillus subtilis; assay: Antibacterial activity against Bacillus subtilis at 200 ug/disk after 24 hrs by disk diffusion method; assay type: functional; conditions: for zone of inhibition at 200 µg/disc: read-out: DIZ
[6] = target: T1, Dihydrofolate reductase (Homo sapiens, UniProt P00374)
T1 sequence (P00374 whole entry): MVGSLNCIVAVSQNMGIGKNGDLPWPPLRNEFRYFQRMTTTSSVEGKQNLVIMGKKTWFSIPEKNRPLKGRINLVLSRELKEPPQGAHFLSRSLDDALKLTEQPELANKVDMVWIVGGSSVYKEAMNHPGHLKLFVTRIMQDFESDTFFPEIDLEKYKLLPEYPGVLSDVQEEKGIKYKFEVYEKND
Description: Inhibition of human DHFR after 2 mins

[7] = tested on: Staphylococcus aureus; assay: Antibacterial activity against Staphylococcus aureus after 24 hrs by microdilution susceptibility method; assay type: functional
[8] = target: T2, Dihydrofolate reductase (Bos taurus, UniProt P00376)
T2 sequence (P00376 whole entry): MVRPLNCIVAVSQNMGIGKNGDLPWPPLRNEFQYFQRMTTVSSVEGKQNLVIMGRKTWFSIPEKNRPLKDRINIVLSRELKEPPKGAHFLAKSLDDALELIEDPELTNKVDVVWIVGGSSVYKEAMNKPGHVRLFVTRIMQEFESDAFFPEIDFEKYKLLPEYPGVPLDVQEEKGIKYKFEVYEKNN
Description: Inhibition of bovine DHFR after 2 mins

[9] = tested on: Micrococcus luteus; assay: Antibacterial activity against Micrococcus luteus at 200 ug/disk after 24 hrs by disk diffusion method; assay type: functional; conditions: for zone of inhibition at 200 µg/disc: Micrococcus luteus, 24 h, read-out: DIZ
[10] = tested on: Escherichia coli; assay: Antibacterial activity against Escherichia coli after 24 hrs by microdilution susceptibility method; assay type: functional
[11] = tested on: Escherichia coli; assay: Antibacterial activity against Escherichia coli at 200 ug/disk after 24 hrs by disk diffusion method; assay type: functional; conditions: read-out: DIZ
[12] = tested on: Candida albicans; assay: Antifungal activity against Candida albicans after 48 hrs by microdilution susceptibility method; assay type: functional, organism-based
[13] = tested on: Micrococcus luteus; assay: Antibacterial activity against Micrococcus luteus after 24 hrs by microdilution susceptibility method; assay type: functional
[14] = tested on: Pseudomonas aeruginosa; assay: Antibacterial activity against Pseudomonas aeruginosa after 24 hrs by microdilution susceptibility method; assay type: functional
[15] = Antitumor activity against human ovarian cancer cells after 48 hrs by SRB assay; assay type: functional; conditions: Cancer cell lines
[16] = Antitumor activity against human leukemia cells after 48 hrs by SRB assay; assay type: functional; conditions: Leukemia cell
[17] = Antitumor activity against human non small cell lung cancer cells after 48 hrs by SRB assay; assay type: functional; conditions: Cancer cell lines
[18] = Antitumor activity against human CNS cancer cells after 48 hrs by SRB assay; assay type: functional; conditions: Cancer cell lines
[19] = Antitumor activity against human colon cancer cells after 48 hrs by SRB assay; assay type: functional; conditions: Cancer cell lines
[20] = Antitumor activity against human renal cancer cells after 48 hrs by SRB assay; assay type: functional; conditions: Cancer cell lines
[21] = Antitumor activity against human breast cancer cells after 48 hrs by SRB assay; assay type: functional; conditions: Cancer cell lines
[22] = Antitumor activity against human prostate cancer cells after 48 hrs by SRB assay; assay type: functional; conditions: Cancer cell lines
[23] = Antitumor activity against human melanoma cells after 48 hrs by SRB assay; assay type: functional; conditions: Melanoma cell

Row | Compound | zone of inhibition at 200 µg/disc [1] [mm] | MIC [2] [µg/mL] | diameter of the inhibition zone (DIZ) [3] | Activity [4] | zone of inhibition at 200 µg/disc [5] [mm] | IC50 [6] [µM] | MIC [7] [µg/mL] | IC50 [8] [µM] | diameter of the inhibition zone (DIZ) [9] | MIC [10] [µg/mL] | zone of inhibition at 200 µg/disc [11] [mm] | Activity [12] | MIC [13] [µg/mL] | diameter of the inhibition zone (DIZ) [1] | zone of inhibition at 200 µg/disc [3] [mm] | zone of inhibition at 200 µg/disc [9] [mm] | also measured
1 | C=CCSc1nc2ccc(NC(=O)/C=C/c3ccccc3)cc2c(=O)n1Cc1ccccc1 | 16 | 8 (≈ 17.6 µM) | inactive | inactive | 18 | 0.5 | 8 (≈ 17.6 µM) | 0.7 | 18 mm | 8 (≈ 17.6 µM) | 18 | inactive | 8 (≈ 17.6 µM) | – | – | – | –
2 | C=CCSc1nc2ccc(N(C/C=C/c3ccccc3)C/C=C/c3ccccc3)cc2c(=O)n1Cc1ccccc1 | 22 | 4 (≈ 7.2 µM) | inactive | inactive | 20 | 0.7 | 4 (≈ 7.2 µM) | 0.5 | inactive | 16 (≈ 28.8 µM) | 16 | inactive | – | – | – | – | –
3 | O=c1c2cc([N+](=O)[O-])ccc2nc(SC/C=C/c2ccccc2)n1Cc1ccccc1 | – | – | – | inactive | – | 3 | – | 5 | inactive | – | 21 | inactive | – | inactive | 17 | – | diameter of the inhibition zone (DIZ) [5]: inactive; MIC [14]: 16 µg/mL (≈ 37.3 µM)
4 | O=c1[nH]cc(F)c(=O)[nH]1 [FLUOROURACIL] | – | – | – | – | – | – | – | – | – | – | – | – | – | – | – | – | GI50 [15]: 61.4 µM; TGI [15]: > 100 µM; GI50 [16]: 15.1 µM; TGI [16]: > 100 µM; GI50 [17]: > 100 µM; TGI [17]: > 100 µM; GI50 [18]: 72.1 µM; TGI [18]: > 100 µM; GI50 [19]: 8.4 µM; TGI [19]: > 100 µM; GI50 [20]: 45.6 µM; TGI [20]: > 100 µM; GI50 [21]: 76.4 µM; TGI [21]: > 100 µM; GI50 [22]: 22.7 µM; TGI [22]: > 100 µM; GI50 [23]: 70.6 µM; TGI [23]: > 100 µM
5 | Cc1ccc2nc(S)n(Cc3ccccc3)c(=O)c2c1 | – | 4 (≈ 14.2 µM) | – | inactive | 18 | – | – | 30 | – | 4 (≈ 14.2 µM) | 17 | inactive | – | inactive | 15 | 14 | –
6 | C=CCSc1nc2ccc(NC/C=C/c3ccccc3)cc2c(=O)n1Cc1ccccc1 | 19 | 4 (≈ 9.1 µM) | inactive | inactive | 20 | 3 | 8 (≈ 18.2 µM) | 5 | – | 8 (≈ 18.2 µM) | 18 | inactive | 16 (≈ 36.4 µM) | – | – | 16 | –
